A word on the Kd: it is the concentration at which binding is half-saturated.

Experiment [1] addresses T1, human TRB3 protein (Homo sapiens, UniProt Q96RU7).
T1 construct: purchased Sino Biological 10731-H09B
T1 sequence (Q96RU7 1-358): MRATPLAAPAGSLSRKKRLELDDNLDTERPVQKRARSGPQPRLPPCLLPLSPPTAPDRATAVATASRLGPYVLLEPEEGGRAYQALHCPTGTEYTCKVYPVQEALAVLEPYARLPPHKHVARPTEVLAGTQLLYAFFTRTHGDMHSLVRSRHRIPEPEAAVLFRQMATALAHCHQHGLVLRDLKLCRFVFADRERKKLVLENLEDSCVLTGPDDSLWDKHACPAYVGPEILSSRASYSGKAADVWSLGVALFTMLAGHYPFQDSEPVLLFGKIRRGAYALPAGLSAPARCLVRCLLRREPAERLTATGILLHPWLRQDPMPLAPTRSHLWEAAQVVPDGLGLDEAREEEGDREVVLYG
Kind of experiment: Microscale thermophoresis (MST) binding to TRB3. The settings on record: Monolith NT.115, recombinant human TRB3, read-out: binding constant (KD). The protocol: To determine the effects of the self‐assembly factor “Ac‐GFFY” on the secondary structure of the A2 peptide fragment, Circular dichroism (CD) and Fourier transform infrared (FTIR) measurements were performed. […] We subsequently assessed the binding affinity between Ac‐GFFY‐A2 or A2 peptides to the human TRB3 protein or bovine serum albumin (BSA) using microscale thermophoresis (MST) assay, with BSA serving as the control group. […] Therefore, we labeled the peptide with the fluorescence group 7‐nitro‐1,2,3‐benzoxadiazole (NBD) to determine the cellular uptake via flow cytometer. The NBD‐labeled peptide was incubated with both of normal and activated MRC‐5 cells for 4 h, respectively. […] Collectively, under the action of supramolecular self‐assembly, the peptide assemblies with stable secondary conformation can not only be effectively absorbed by MRC‐5 cells but also have the potential to interfere with TRB3/p62 PPIs.
HR‐MS (Varian QFT‐ESI) was used to characterize the molecular weight of compounds. TEM (JEM100CXII) was performed at the Tecnai G2 F20 system, operating at 100 kV. Circular dichroism (CD) spectrum was obtained by a BioLogic (MOS‐450) system. Dynamic light scattering was measured by a ZETAPALS/BI‐200SM (BROOKHAVEN) system. Confocal laser scanning microscopy (CLSM) was measured by Leica TCS SP‐5. Flow cytometry (BD, FACS) was used to detect the cellular uptake. […]

Experiment [2] relates to TRB3/p62 PPIs in lung tissue. Kind of experiment: Co-IP, western blot and q-PCR of lung tissues from bleomycin mice. The class given is in vivo. The settings on record: i.v. On the procedure: We attempted to elucidate the mechanism of Ac-GFFY-A2 peptide nanofibers in ameliorating bleomycin-induced lung fibrosis at the molecular level. The nanofibers were administered to the lung fibrosis mice model via intravenous (i.v.) injection, saline treatment as the control group. The mice were sacrificed on day 21 and lung tissues were harvested for the following detection. […] Those results confirmed the potential therapeutic efficacy of peptide nanofibers in pulmonary fibrosis at both the transcriptional and translational levels. […] Gene expression was determined relative to that of the endogenous reference gene (Gapdh) using the 2^-ΔΔCt method. […] The protein concentration was measured using BCA Protein Assay Kit (Thermo Scientific). […] The protein transferred PVDF membranes were incubated with following primary antibodies at 4°C overnight: Then the membranes were incubated with horseradish peroxidase (HRP)-conjugated secondary antibodies at room temperature for 1 h, and protein signals were detected using an enhanced chemiluminescence kit (Pierce). […] The co -precipitates were resolved using SDS-PAGE and detected with immunoblotting. […] Fluorescence imaging was performed using a IVIS Lumina II imaging (PerkinElmer, USA) at different time point post injection. […]

Ac-GFFYGGWLTRLLQTK-OH [Ac-GFFY-A2]: in experiment [1], the Kd was roughly 19.1 µM. Further, the “mRNA expression levels of Col 1, FN and α-SMA in lung tissues (q-PCR)” value in experiment [2] (day 21, versus saline treatment control group) was “significantly lower”. In experiment [2] (lung tissues harvested on day 21), the “TRB3/p62 interaction in lung tissue (co-IP)” value was “could disturb the interaction between TRB3 and p62 in lung tissue”.

The record behind these values is article PMC11267363, “Supramolecular Nanofibers Ameliorate Bleomycin‐Induced Pulmonary Fibrosis by Restoring Autophagy” (Advanced Science, 2024).
